According to patent US12636291B2, “Compositions and methods relating to use of agonists of ALPHA5-containing GABAA receptors” (Centre for Addiction and Mental Health, priority 2019, dated 2026):

Columns and labels:
[1] = test system: old mice; test: Spontaneous alternation in the Y-Maze (working memory), normal aging; format: in vivo, mouse; conditions: GL-II-73 in drinking water 8 weeks (30 mg/kg) vs old mice vehicle (52.6%; young 79.6%), p=0.01
Source text: The percentage of alternation during the Y maze test can be considered as an index of working memory performance (50% of alternation corresponding to a random alternation rate). […] ANOVA analysis indicates a significant difference between all groups (F(2;25)=11.34; p=0.0003).
Animals: For the experiments described above, young (n=11, age 2 months) and old male mice (N=23) were purchased from Charles River. Old mice were obtained at the age of 9-10 months and were kept in the animal facility until they reached the age of 22 months. Young mice (2 months old) were purchased when old mice had already reached the age of 22 months. All animals were single housed. Experiments were performed on mice aged 2 months (“young”) or 22 months (“old”) at the beginning of the experimental protocol. The second set of experiments with the Washout group included 8 young mice and 22 old mice. Old mice were split into 3 groups of 7-8 between “Old”, “Old-treated” and “Old-Washout”. Finally, the pilot with the 5×FAD mice was performed with 15 heterozygote 5×FAD mice, bred in the animal facility of the Centre for Addiction and Mental Health, Toronto (ON, Canada). […]
(§1) Spontaneous alternation in the Y-Maze: Mice were tested in a Y maze test as an assessment of working memory. […] The alternation rate was calculated and was expressed as a percentage: […]

[2] = test system: SV129 mice; test: Neurogenesis (proliferation, survival, maturation) in the SV129 mouse model; format: in vivo; conditions: compared to VEH
Source text: We next assessed the effects of GL-II-73 on neurogenesis using the SV129 mouse model Kim et al. 2017. Neural Plasticity, doi.org.10.1155/2017/5863258. Specifically, we assessed the effects of treatment on neuronal cell proliferation, survival, and maturation. It is now recognized that neurogenesis occurs not only during development, but also in the adult brain. […] Specifically, adult neurogenesis is known to occur in three regions in the mammalian brain: (i) the subgranular zone (SGZ) of the dentate gyrus in the hippocampus, which is a region that is involved in regulating learning and memory; (ii) the subventricular zone (SVZ), which is situated throughout the lateral walls of the brain's lateral ventricles; and (ii) the amygdala. New neurons born in the SGZ migrate into the granule cell layer of the dentate gyrus and eventually become granule cells. These newborn neurons integrate into the existing circuitry and receive functional input. Adult neurogenesis in the hippocampus is therefore defined as the progression from neural stem cell to mature dentate granule neuron. All stages of adult neurogenesis are regulated by physiological activity, including the proliferation, differentiation, fate determination of adult neural stem cells (NSCs) and progenitors, and the survival, maturation, and integration of newborn neurons.
The stages of neurogenesis can be broken down into (i) proliferation, (ii) survival of the newly formed cells, and (iii) their maturation. Each can be evaluated using specific markers for proliferation, survival, and maturation. […] BrdU can be used to show survival of the newly proliferating cells since it is incorporated into the newly synthesized DNA of replicating cells and is then maintained in the newly formed cells. Thus, quantitative immunohistochemistry against BrdU is used as a proxy of survival. Finally, doublecortin can be used as a proxy of maturation. Previous studies have shown that all steps of neurogenesis were down regulated in the SV129 mice, and further that chronic treatment with fluoxetine, a first line monoaminergic antidepressant, increased the neurogenesis in this mouse model. We therefore used this model system to assess the effects of chronic treatment with GL-II-73 on neurogenesis.
Fluoxetine treatment was used as a positive control in each experiment.

[3] = test system: heterozygous 5×FAD mice; test: Spontaneous alternation in the Y-Maze, 5×FAD Alzheimer's disease model pilot; format: in vivo, mouse; conditions: 6 months of age, acute i.p. 10 mg/kg vs vehicle, FIG. 23
Description: A pilot study was performed in the 5×FAD mouse Alzheimer's disease model system using 15 heterozygous animals tested from the age of 4 to 6 months. The same animals were tested monthly for spontaneous alternation in the Y-Maze test. When they reached the age of 6 months, 50% of the animals were injected i.p. with vehicle or with GL-II-73 (10 mg/kg).
Animals: For the experiments described above, young (n=11, age 2 months) and old male mice (N=23) were purchased from Charles River. Old mice were obtained at the age of 9-10 months and were kept in the animal facility until they reached the age of 22 months. Young mice (2 months old) were purchased when old mice had already reached the age of 22 months. All animals were single housed. Experiments were performed on mice aged 2 months (“young”) or 22 months (“old”) at the beginning of the experimental protocol. The second set of experiments with the Washout group included 8 young mice and 22 old mice. Old mice were split into 3 groups of 7-8 between “Old”, “Old-treated” and “Old-Washout”. […]
as §1

`C#Cc1ccc2c(c1)C(c1ccccc1F)=N[C@H](C)c1c(C(=O)N(C)C)ncn1-2` (stereo in doubt) [GL-II-73, 8-ethynyl-6-(2-fluorophenyl)-N,N,4-trimethyl-4H-benzo[f]imidazo[1,5-a][1,4]diazepine-3-carboxamide] was tested, and the “alternation rate in the Y maze test” value [1] was “higher alternation rate than old mice receiving only vehicle”, the “proliferation: number of K167-positive cells” value ([2]; chronic treatment (4 weeks), FIG. 13A, FLX p<0.001, GL-II-73 p<0.05) was “increased the number of K167-positive cells” and the “survival: BrdU-positive cells” value ([2]; chronic treatment (4 weeks), FIG. 13B) was “increased survival as shown by the increased in BrdU labeling in SV129 mice, as shown in FIG. 13B, even though not reaching significance”. For the same compound, the “maturation index (DCX+cells possessing tertiary dendrites over the total DCX+cells)” value ([2]; chronic treatment, FIG. 14B, ps<0.01) was “an increase with both FLX and GL-II-73” and the “alternation performance in the Y-Maze test” value [3] was “a reversal of this decrease in alternation performance in the GL-II-73 treated group, although also not reaching statistical significance”.
